We go through six compounds from PubChem BioAssay (NCI).

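Step 1: Grow cells in 96-well plates. Step 2: Expose to compound for 48 hours at 5 concentrations. Step 3: Interpolate endpoints linearly; if unreached, use highest concentration. GI50: concentration for 50% inhibition of growth. TGI: concentration producing complete growth inhibition.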

Some test systems named below: A498 renal; CCRF-CEM leukemia; COLO 205 colon; DU-145 prostate; HL-60(TB) leukemia; HOP-62 NSCLC; NCI-H226 lung; NCI-H23 lung; NCI-H460 lung; RXF 393 renal.
Holding throughout (test): NCI-60 cell line screen, 48 h

Turning to `N#Cc1ccccc1C#C/C=C\C#Cc1cnccn1`, the GI50 was 16200 nM with A498 renal; 3090 nM with CCRF-CEM leukemia; 19700 nM in the experiment with COLO 205 colon; 25000 nM in the experiment on DU-145 prostate; 3.23 µM in the experiment with HL-60(TB) leukemia; 29300 nM in the experiment with HOP-62 NSCLC. Besides, the GI50 in the experiment with NCI-H226 lung was 26.6 µM; in the experiment with NCI-H23 lung, 7.04 µM; in the experiment on NCI-H460 lung, 39400 nM; with RXF 393 renal, above 37000 nM. For the same compound, the TGI is 52.3 µM in the experiment with A498 renal; above 100 µM with CCRF-CEM leukemia; above 57.5 µM with COLO 205 colon; above 100 µM in the experiment on DU-145 prostate; above 24.1 µM in the experiment with HL-60(TB) leukemia; above 64.6 µM in the experiment with HOP-62 NSCLC. The TGI with NCI-H226 lung is above 83.1 µM; in the experiment with NCI-H23 lung, 22.4 µM; in the experiment with NCI-H460 lung, above 100 µM; with RXF 393 renal, above 74.1 µM.
Take `CCOC(=O)C(Cc1ccc(N(CCCl)CCCl)cc1)NC(=O)C(CC(C)C)NC(C)=O` (stereo not drawn): the GI50 with A498 renal is 2290 nM; in the experiment on CCRF-CEM leukemia, 232 nM; with COLO 205 colon, 1250 nM; in the experiment with DU-145 prostate it was 472 nM; with HL-60(TB) leukemia, 0.304 µM; in the experiment with HOP-62 NSCLC it was 1320 nM. Besides, the GI50 with NCI-H226 lung is 3.79 µM; in the experiment on NCI-H23 lung, 0.679 µM; in the experiment with NCI-H460 lung it was 76.3 nM; in the experiment on RXF 393 renal, 944 nM. Besides, the TGI in the experiment on A498 renal came to 10.6 µM; in the experiment on CCRF-CEM leukemia, 3.31 µM; with COLO 205 colon, 2.7 µM; with DU-145 prostate, 4.41 µM; with HL-60(TB) leukemia it was 1.9 µM; with HOP-62 NSCLC, 3.8 µM. Moreover, the TGI in the experiment on NCI-H226 lung was determined as 10.7 µM; with NCI-H23 lung it was 2.68 µM; in the experiment with NCI-H460 lung, 1.54 µM; with RXF 393 renal, 2.3 µM.
Take `C=CC(=O)N1CC[C@@H](Oc2nc(Nc3ccc(N4CCC(N5CCN(C)CC5)CC4)cc3)c(C(N)=O)nc2CC)C1`: the GI50 in the experiment with A498 renal is above 100000 nM; in the experiment with CCRF-CEM leukemia, above 100000 nM; with COLO 205 colon, above 100000 nM; with DU-145 prostate, above 100000 nM; in the experiment with HL-60(TB) leukemia, above 100 µM; with NCI-H226 lung, above 100 µM. Further, the GI50 in the experiment with NCI-H23 lung is above 100 µM; with NCI-H460 lung, above 100000 nM; with RXF 393 renal, above 100000 nM. Also, the TGI in the experiment with A498 renal, in the experiment on CCRF-CEM leukemia, in the experiment with COLO 205 colon, in the experiment on DU-145 prostate, with HL-60(TB) leukemia and with NCI-H226 lung was above 100 µM each time. Further, the TGI in the experiment on NCI-H23 lung, in the experiment with NCI-H460 lung and in the experiment on RXF 393 renal was above 100 µM throughout.
As to `CC[N+]1(C)CCC(O)(/C=C/c2ccccc2)C(C(=O)/C=C/c2ccccc2)C1` (stereo not drawn), the TGI in the experiment on A498 renal came out at 38.9 µM; with CCRF-CEM leukemia it was 10.8 µM; in the experiment with COLO 205 colon, 8.19 µM; in the experiment on DU-145 prostate, 39.1 µM; in the experiment with HL-60(TB) leukemia, 8.48 µM; with HOP-62 NSCLC, 35.5 µM. Besides, the TGI with NCI-H226 lung turned out to be 29.7 µM; in the experiment with NCI-H23 lung it was 35 µM; in the experiment on NCI-H460 lung it was 43.5 µM; in the experiment with RXF 393 renal, 19.7 µM.
As for `CCS(=O)(=O)Nc1ccc(Oc2ccc(F)cc2F)c(-c2cn(C)c(=O)c3[nH]ccc23)c1`, the GI50 in the experiment with A498 renal was 157 nM; in the experiment with CCRF-CEM leukemia it was 162 nM; with COLO 205 colon it was below 10 nM; with DU-145 prostate, 2880 nM; in the experiment on HL-60(TB) leukemia, below 0.01 µM; in the experiment on HOP-62 NSCLC it was below 24.5 nM. Moreover, the GI50 was 2.46 µM in the experiment on NCI-H226 lung, 0.0956 µM in the experiment on NCI-H23 lung, 302 nM with NCI-H460 lung and 1620 nM in the experiment on RXF 393 renal. Also, the TGI with A498 renal was 4.01 µM; in the experiment with CCRF-CEM leukemia, above 60 µM; in the experiment on COLO 205 colon, 6.29 µM; in the experiment with DU-145 prostate, 31.4 µM; with HL-60(TB) leukemia, 0.249 µM; with HOP-62 NSCLC, 26.2 µM. Moreover, the TGI in the experiment on NCI-H226 lung amounted to 20.2 µM; in the experiment on NCI-H23 lung, 13.5 µM; with NCI-H460 lung, 19.3 µM; with RXF 393 renal, 14.1 µM.
Turning to `Cn1cnc2nc(Cl)nc(Cl)c21`, the GI50 in the experiment with A498 renal was 2200 nM; in the experiment with CCRF-CEM leukemia, 840 nM; with COLO 205 colon it was 2180 nM; with DU-145 prostate, 1650 nM; in the experiment with HL-60(TB) leukemia, 3.16 µM; in the experiment with HOP-62 NSCLC it was 2550 nM. For the same compound, the GI50 was 12.4 µM with NCI-H226 lung, 10.4 µM in the experiment with NCI-H23 lung, 2040 nM in the experiment on NCI-H460 lung and 2390 nM with RXF 393 renal. Further, the TGI in the experiment on A498 renal is 6.77 µM; with CCRF-CEM leukemia it was 22.1 µM; in the experiment on COLO 205 colon it was 5.27 µM; with DU-145 prostate it was 4.87 µM; in the experiment on HL-60(TB) leukemia, 8.08 µM; in the experiment with HOP-62 NSCLC it was above 100 µM. For the same compound, the TGI in the experiment with NCI-H226 lung came out at 31.4 µM; in the experiment with NCI-H23 lung it was 34.2 µM; in the experiment on NCI-H460 lung, 6.12 µM; in the experiment on RXF 393 renal, 7.09 µM.
